# Reference: patent US20200171030A1, “DUAL INHIBITORS OF ALK5 AND P38A MAP KINASE” (INTEGRAL BIOSCIENCES PRIVATE LIMITED, priority 2018, published 2020)
# Where a name gives a salt, the structure may show the parent alone.
# How the values were obtained:
# MAPK14/p38α kinase = biological target: T1, MAPK14/p38α kinase (Homo sapiens, UniProt Q16539); experiment: MAPK14/p38α kinase assay (LanthaScreen TR-FRET); assay type: biochemical; conditions: 100 nM concentration of compound; Table 4; read-out: Enzyme Activity MAPK14 (p38alpha) % Inh at 100 nM
# T1 construct: purchased ThermoFisher PV3304
# Protocol: MAPK14/p38α Kinase Assay for IC50 Determination:
# IC50 values of compounds against MAPK14/P38α kinase were determined by Lanthascreen based TR-FRET assay. Kinase reactions were performed in a 10 μL volume in low-volume 384-well plates. The concentration of substrate was maintained at 400 nM in the assay, and the kinase reaction buffer (1×; Cat # PV3189, ThermoFisher) consisted of 50 mM HEPES pH 7.5, 0.01% BRIJ-35, 10 mM MgCl2, and 1 mM EGTA. Serially diluted compounds (3-fold) in DMSO (0.5% in final reaction) were incubated with cocktail of MAPK14/p38α kinase (20 ng/ml; Cat # PV3304, ThermoFisher), Substrate GFP-ATF2 (19-96), (0.4 μM; Cat # PV4445, ThermoFisher), ATP (90 μM; Cat # PV3227, ThermoFisher) and buffer. Kinase reactions were allowed to proceed for 1 hour at room temperature before EDTA (10 mM; Cat # P2825, ThermoFisher) and LanthaScreen™ Tb-antipATF2 (pThr71) Antibody (2 nM; Cat # PV4451, ThermoFisher) in TR-FRET dilution buffer (IX; Cat # PV3574, ThermoFisher) were added. The plate was allowed to incubate at room temperature for 30 minutes before being read on a BMG Pherastar plate reader using the LanthaScreen™ filter block for LanthaScreen™ TR-FRET.
# The resulting TR-FRET emission ratio was plotted against the concentration of inhibitor, and the data was fit to a sigmoidal dose-response curve with a variable slope. The IC50 for the inhibitor was calculated from the curve.
# Panc-1 = experiment: Cell viability assay (resazurin, 96 hr) in Panc-1; assay type: cell-based; conditions: Homo sapiens; Panc-1 pancreatic cell line, 96 hr exposure; read-out: Panc-1_Cell Viability_IC50
# Protocol: (§1) Cell Viability Assay in MIA PaCa-2 and Panc-1
# (§2) MIA PaCa-2 (ATCC® CRL-1420™) and Panc-1 (CRL-1469™), both pancreatic cell lines were seeded in their respective medium (DMEM, Cat #10569044 with 10% FBS, Cat #16000044; Gibco for Panc-1 and an additional 2.5% Horse Serum, Cat #16050122; Gibco for MIA PaCa-2) at a cell count of 3000 cells per 100 μl per well in a 96 well edge plate (167425; ThermoFisher). Cells were allowed to grow at 37° C. for 24 hr in 5% CO2 (culture conditions) in a Nuaire incubator (humidified). Serially diluted compounds (100 μl) were added to the culture plate 24 hr later and the cultures (MIA PaCa-2 and Panc-1) were further incubated in culture conditions for 96 hr. Experiment was terminated at the completion of 96 hr exposure to the drug by replacing the medium with 100 μl of 1 mM of resazurin (R7017; Sigma) prepared in culture medium and the plates were further incubated in culture conditions for 4 hr. Fluorescence was then measured using a multimodal plate reader (Biotek Synergy Neo) at an excitation wavelength of 535 nm and emission wavelength of 590 nm to obtain relative fluorescence units. Data analysis was done by subtracting the background fluorescence (only medium blank) value from each reading and then normalizing with the vehicle control (DMSO treated cells) to obtain percent survival/proliferation. Percent survival at different doses was used to calculate IC50 by fitting the curve to the “four-parameter variable slope logistic model” using Prism Graph Pad.
# TGFBR1 (ALK5) = biological target: T2, TGFBR1 (ALK5) (Homo sapiens, UniProt P36897); experiment: ALK5 kinase assay (LanthaScreen Terbium labeled TR-FRET); assay type: biochemical; conditions: Table 4; read-out: ALK5 IC50
# T2 sequence (P36897 34-503): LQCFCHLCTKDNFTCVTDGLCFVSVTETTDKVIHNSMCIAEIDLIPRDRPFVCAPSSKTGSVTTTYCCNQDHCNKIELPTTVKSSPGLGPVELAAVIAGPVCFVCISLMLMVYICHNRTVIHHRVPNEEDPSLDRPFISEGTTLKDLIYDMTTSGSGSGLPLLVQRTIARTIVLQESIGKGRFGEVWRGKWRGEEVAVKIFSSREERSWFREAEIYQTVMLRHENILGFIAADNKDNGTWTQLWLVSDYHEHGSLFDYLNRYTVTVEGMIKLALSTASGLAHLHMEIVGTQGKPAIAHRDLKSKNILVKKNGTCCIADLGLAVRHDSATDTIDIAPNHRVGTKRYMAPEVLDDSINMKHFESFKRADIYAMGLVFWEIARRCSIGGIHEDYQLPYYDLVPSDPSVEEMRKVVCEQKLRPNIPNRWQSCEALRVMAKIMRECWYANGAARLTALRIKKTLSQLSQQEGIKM
# Protocol: ALK5 Kinase Assay for IC50 Determination:
# IC50 values of compounds against TGFβ kinase was determined by LanthaScreen™ Terbium Labeled TR-FRET assay. Kinase assays were performed in IX kinase buffer (# PV6135, Invitrogen, Life Technologies Grand Island, N.Y.) where total reaction volume was 10 μL in low-volume 384-well plates (#4511,Corning). Serially diluted compounds (3-fold) were incubated with TGFβ kinase (6 nM) for 10 min, following which a mixture of ATP (10 μM) (# A1852, Sigma, St-Louis, Mo.) and fluorescent-PolyGT substrate (200 nM) (# PV3610, Invitrogen, Life Technologies Grand Island, N.Y.) was added and incubated in dark at room temperature for 1 h. After 1 h, 10 μL stop solution containing Terbium labeled antibody (4 nM) (# PV3529, Invitrogen, Life Technologies Grand Island, N.Y.) and EDTA (# E5134, Sigma, St-Louis, Mo.) (20 mM) in TR-FRET dilution buffer (# PV3574, Invitrogen, Life Technologies Grand Island, N.Y.) was added. Readings were taken in a Synergy Neo Plate reader (BioTek, Winooski) at single excitation of 340 nm and Dual emission at 495 nm and 520 nm respectively.
# The % activity of test samples was calculated as (Sample−Min)×100/(Max−Min). [Max: DMSO control, complete reaction with enzyme with DMSO and Min: No enzyme with DMSO]. Percent inhibition (100-% activity) was fitted to the “four-parameter logistic model” in XLfit for determination of IC50 values.
# MIA PaCa-2 = experiment: Cell viability assay (resazurin, 96 hr) in MIA PaCa-2; assay type: cell-based; conditions: Homo sapiens; MIA PaCa-2 pancreatic cell line, 96 hr exposure; read-out: MiaPaCa-2_Cell Viability_IC50
# Protocol: as §1, §2
# T1 sequence (Q16539 whole entry): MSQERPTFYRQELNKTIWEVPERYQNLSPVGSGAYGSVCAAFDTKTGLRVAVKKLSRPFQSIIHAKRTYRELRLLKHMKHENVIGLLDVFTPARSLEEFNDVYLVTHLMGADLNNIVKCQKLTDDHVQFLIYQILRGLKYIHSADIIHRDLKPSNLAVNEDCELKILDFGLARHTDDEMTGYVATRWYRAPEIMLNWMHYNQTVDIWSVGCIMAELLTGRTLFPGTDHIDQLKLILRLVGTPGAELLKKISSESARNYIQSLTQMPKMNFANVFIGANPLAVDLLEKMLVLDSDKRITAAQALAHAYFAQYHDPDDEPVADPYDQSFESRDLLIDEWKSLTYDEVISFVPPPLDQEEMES
SMILES,inhibition at 0.1 µM (MAPK14/p38α kinase) [%],IC50 (Panc-1) [µM],IC50 (TGFBR1 (ALK5)) [µM],IC50 (MIA PaCa-2) [µM]
"CC(C)c1ccc(-c2ccc(F)cc2)nc1Nc1ccnc2[nH]cc(C(=O)C(N)=O)c12 [Compound No. 27, 2-(4-(6-(4-fluorophenyl)-3-isopropylpyridin-2-ylamino)-1H-pyrrolo [2,3-b]pyridin-3-yl)-2-oxoacetamide hydrochloride]",0,> 30,> 5,> 30
"CC(C)c1cnc(-c2ccc(F)cc2)nc1Nc1cccc2[nH]cc(C(=O)C(N)=O)c12 [Compound No. 28, 2-(4-(2-(4-fluorophenyl)-5-isopropylpyrimidin-4-ylamino)-1H-indol-3-yl)-2-oxoacetamide hydrochloride]",21,> 30,> 5,> 30
